We go through two substances from US20090178145A1, “Methods and targets for identifying compounds for regulating angiogenesis” (The Procter & Gamble Company, priority 2005, published 2009).

One series deals with ETL. Description: Zebrafish morpholino knockdown of ETL: blood circulation and intersegmental vessel morphology. The class given is in vivo. The text has this:
(§1) To assess gene function in zebrafish (Danio rario) angiogenesis, MOs directed against ETL, GPR (or GPR176) and their respective mismatch controls are microinjected into zebrafish at the 1-2 cell stage. Blood circulation through the intersegmental vessels (ISVs) is observed in live zebrafish at 48 hpf and morphology of ISVs in the tail at 48 hpf using Phy-V antibody staining is also examined as described (Seng W. L. et al., Angiogenesis. 2004; 7(3):243-53.). The sequence for the ETL morpholino is: […]. The sequence for the mismatch […] morpholino (small case letters indicate mismatches) is: GCAcGAcTTTgATTGGAcAACTcTG. The sequence for the GPR morpholino is: […]. The sequence for the mismatch […] morpholino (small case letters indicate mismatches) is: AGgTCTgCGCcTTATCCcCCTCgAT.
While transcriptional gene changes provide the basis for investigating ETL and GPR as regulators of vascular development, experiments are carried out to obtain functional evidence that ETL and GPR are involved in blood vessel growth and development. To accomplish this, a zebrafish model may be used with ETL or GPR morpholino oligos to reduce gene expression during vasculogenesis. […] This effect is not seen in control MO injections.

The test system of another series is GPR176. As to the kind of experiment: Zebrafish morpholino knockdown of GPR (GPR176): blood circulation and intersegmental vessel morphology. The class given is in vivo. Particulars: 48 hpf.
Source text: as §1
This effect is not seen in control MO injections.

For the substance “ETL MO: morpholino oligo directed against zebrafish ETL, sequence GCAGGAGTTTCATTGGAGAACTGTG (SEQ ID NO 17) (all phosphorodiamidate morpholino (PMO))”, the “zebrafish affected (same ISV phenotype as the 0.5 pmol dose)” value in the series on ETL (0.25 pmol ETL MO, 48 hpf) was 70%. In addition, the “zebrafish with abnormal connections and incomplete vessel formation of ISVs by immunostaining” value with ETL (0.5 pmol ETL MO injected at 1-2 cell stage, 48 hpf) came out at 100%. For the same substance, the “body morphology in live zebrafish” value in the series on ETL (0.5 pmol ETL MO, 48 hpf) is “slightly curved body morphology”. Further, in the series on ETL (0.5 pmol ETL MO, 48 hpf, versus mismatch control), the “blood circulation through the intersegmental vessels in live zebrafish” value is “visible circulatory defects”. In the series with ETL (48 hours post fertilization, versus mismatch control), the “phenotype of knockdown in images (FIG. 7)” value is “retarded eye formation, edema in the brain and disrupted intersegmental vessel development and disrupted blood circulation”.
In the case of “GPR MO: morpholino oligo directed against zebrafish GPR176, sequence AGCTCTCCGCGTTATCCGCCTCCAT (SEQ ID NO 19) (all phosphorodiamidate morpholino (PMO))”, the “zebrafish affected (similar ISV phenotype as the 0.5 pmol dose)” value in the series with GPR176 (0.25 pmol GPR MO) is recorded as 37%. Further, the “body morphology in live zebrafish” value with GPR176 (0.5 pmol GPR MO) was “slightly curved body morphology”. Besides, the “zebrafish with abnormal connections and incomplete vessel formation of ISVs by immunostaining” value in the series on GPR176 (0.5 pmol GPR MO, experiment 1) is given as 76%; in the series with GPR176 (0.5 pmol GPR MO, experiment 2), 94%. Moreover, in the series with GPR176 (0.5 pmol GPR MO, versus mismatch control), the “blood circulation through the intersegmental vessels in live zebrafish” value is “visible circulatory defects”.
